Experimental data as given in patent US20230013402A1, “REGENERATING FUNCTIONS AND PHENOTYPES OF CONNECTIVE TISSUE THROUGH NPAS2 SUPPRESSION” (The Regents of the University of California, priority 2019, published 2023).
Counter-ions that a name gives are not always drawn. Like-named read-outs stand apart in the source and are kept apart here.

Legend:
[1] = tested on: fibroblasts; settings: in vitro, compared to vehicle; cited from earlier work
[2] = tested on: human skin fibroblasts; experiment: High-throughput cell migration assay (Oris Pro Cell Migration Assay plate) / standardized viability; type: cell-based
From the text: (§1) Mouse MSC carrying Npas2-LacZ reporter gene, as described by Hassan N, et al., PLoS One. 2017; 12(8):e0183359, which is incorporated by reference herein in its entirety, was immortalized using SV40 in order to accommodate a large-scale HTS. […] This cell system was used to screen FDA Approved Drug Library (1120 compounds). The same library was also screened for cell viability by Calcein AM Hoechst 33342 staining Cell migration assays using the Oris™ Pro Cell Migration Assay plate, as described by Joy M E et al., PloS one. 2014; 9(2):e88350, which is incorporated by reference herein in its entirety, was used for a high-throughput migration assay using human skin fibroblasts
(§2) The combined Z score was used to identify hit compounds (Table 1).

[3] = tested on: Npas2-LacZ reporter gene (Npas2 expression); experiment: High throughput screening of FDA Approved Drug Library for Npas2-LacZ reporter expression; type: cell-based, mouse
From the text: as §1, §2

[4] = tested on: Npas2-LacZ expression; experiment: High throughput screening of LOPAC1280 for Npas2-LacZ expression of mouse BMSC; type: cell-based; parameters: concentration or dose not given beside the values; settings: Activity against negative controls in LOPAC screening; Npas2 downregulation
From the text: FIGS. 13A-13C show an unbiased chemical genetics analysis was used to determine the molecular mechanisms underlying implant osseointegration. […] Hit compounds were identified as z-score >2.5 or <−2.5.
Femur BMSC derived from Npas2−/− mouse was previously characterized for the expression of LacZ, as described by Hassan, N., et al., (2017) Titanium biomaterials with complex surfaces induced aberrant peripheral circadian rhythms in bone marrow mesenchymal stromal cells. PLoS One 12, e0183359, which is incorporated by reference herein in its entirety, which was used for high throughput screening of LOPAC 1280 (FIG. 13A). […] The validation study identified a total of 14 compounds (FIG. 13C), which were subjected to the chemical genetics analysis. […] By contrast, Npas2 down regulating compounds stimulate or accumulate cAMP, or induce cAMP response element binding (CREB) activation (Table 3).

[5] = Table 2, additional Npas2 expression suppressors
[6] = Table 1, HTS of FDA Drug Library
[7] = Table 1, combined Z score (product)

Molecule | Migration (standardized viability) Z Score [2, 5] | NPAS2 Z Score [3, 5] | further results
NCCc1c[nH]c2ccc(O)cc12 [serotonin] | – | – | Width of scratch zone [1]: reduced
CC[C@H](C)C(=O)O[C@H]1C[C@H](O)C=C2C=C[C@H](C)[C@H](CC[C@@H](O)C[C@@H](O)CC(=O)O)[C@H]21 [Pravastatin] | 0.64 | −2.16 | –
Cn1cnc2c1c(=O)[nH]c(=O)n2C [Theobromine] | −0.6 | −2.04 | –
COc1cc2c(c(OC)c1OC)-c1ccc(OC)c(=O)cc1[C@@H](NC(C)=O)CC2 [Down03, Colchicine] | – | – | % Activity [4]: −29.7%
Cc1c(NC(=O)c2cccnc2)c(=O)n(-c2ccccc2)n1C [Nifenazone] | −0.243 | −2.41 | –
CCOC(=O)[C@H](CCc1ccccc1)N[C@@H](C)C(=O)N1CCC[C@H]1C(=O)O [MS-1501214, enalapril maleate] | −1.53 | −3.22 | –
CN1[C@@H]2CC[C@H]1CC(OC(=O)C(CO)c1ccccc1)C2.CN1[C@@H]2CC[C@H]1CC(OC(=O)C(CO)c1ccccc1)C2.O.O=S(=O)(O)O (stereo partly drawn) [Atropine sulfate monohydrate] | – | −2.04 | NpasZ × ViabilityZ ([3]; Table 2, combined Z score (product)): −0.3692
CC[n+]1c(/C=C/C=C2/N(C)c3ccccc3C2(C)C)sc2ccccc21.[I-] [Down06, AC-93253 iodide] | – | – | % Activity [4]: −25.1%
O=C(N/N=C/c1ccc([N+](=O)[O-])o1)c1ccc(O)cc1 [Nifuroxazide] | −0.402 | −3.43 | –
C[C@]12C=CC(=O)C=C1CC[C@@H]1[C@@H]2[C@@H](O)C[C@@]2(C)[C@H]1CC[C@]2(O)C(=O)CO [Prednisolone] | −2.31 | −2.42 | –
O=C(OC1C[C@@H]2CC3C[C@H](C1)N2CC3=O)c1c[nH]c2ccccc12 (stereo partly drawn) [Dolasetron mesilate] | −1.91 | −2.64 | –
O=C(O)c1cccnc1Nc1cccc(C(F)(F)F)c1 [Niflumic Acid, Niflumic acid] | – | – | Migration (standardized viability) Z Score [2, 6]: 1.79; NPAS2 Z Score [3, 6]: −1.99; NPAS Z × ViabilityZ [3, 7]: −3.56
C/C=C(/C)C(=O)O[C@H]1C(C)=C2[C@H]([C@@H]1OC(=O)CCCCCCC)[C@@](C)(OC(C)=O)C[C@H](OC(=O)CCC)[C@@]1(O)[C@H]2OC(=O)[C@@]1(C)O [Down12, THAPSIGARGIN] | – | – | % Activity [4]: −43.5%
C[C@H]1CCC/C=C/[C@@H]2C[C@H](O)C[C@H]2[C@H](O)/C=C/C(=O)O1 [Down01, Brefeldin A] | – | – | % Activity [4]: −45.4%
CNCC[C@@H](Oc1ccccc1C)c1ccccc1 [SAM001246626, Atomoxetine hydrochloride] | −0.749 | −2.6 | –
O=C(O)COC(=O)Cc1ccccc1Nc1c(Cl)cccc1Cl [Aceclofenac] | 0.666 | −2.16 | –
Tyloxapol | – | – | Migration (standardized viability) Z Score [2]: 0.572; NPAS2 Z Score [3]: −2.39; NpasZ × ViabilityZ [3]: −1.367
CN(Cc1ccc(C(C)(C)C)cc1)Cc1cccc2ccccc12.Cl [Butenafine Hydrochloride] | 0.239 | −2.02 | –
CC(C)NC[C@H](O)COc1ccc(CC(N)=O)cc1 [(S)-(-)-Atenolol, (S)-(−)-Atenolol] | – | – | NPAS2 Z Score [3]: −2
NC(=O)OCC(O)COc1ccc(Cl)cc1 (stereo not drawn) [Chlorphensin carbamate] | −0.157 | −2.36 | –

Molecule | Migration (standardized viability) Z Score [2, 5] | NPAS2 Z Score [3, 5] | further results
COc1cccc2c1C(=O)c1c(O)c3c(c(O)c1C2=O)C[C@@](O)(C(C)=O)C[C@@H]3O[C@H]1CC(N)[C@H](O)C(C)O1.Cl (stereo partly drawn) [Daunorubicin hydrochloride] | −4.56 | −2.45 | –
C[C@]12CC[C@@H]3c4ccc(O)cc4CC[C@H]3[C@@H]1CCC2=O [Estrone] | −2.56 | −2.01 | –
CCCCCC[C@H]1C(=O)O[C@H](C)[C@H](NC(=O)c2cccc(NC=O)c2O)C(=O)O[C@@H](C)[C@@H]1OC(=O)CC(C)C (stereo in doubt) [Antimycin A] | – | – | Migration (standardized viability) Z Score [2, 6]: 2.13; NPAS2 Z Score [3, 6]: −2.72; NPAS Z × ViabilityZ [3, 7]: −5.79
Clc1ccc(COC(Cn2ccnc2)c2ccc(Cl)cc2Cl)cc1 (stereo not drawn) [Econazole nitrate] | 0.805 | −2.41 | –
CC[C@@]1([C@@H]2OC(C3O[C@@](O)(CO)[C@H](C)C[C@@H]3C)C[C@@H]2C)CC[C@H]([C@]2(C)CC[C@@]3(C[C@H](O)[C@@H](C)C([C@@H](C)[C@@H](OC)[C@H](C)C(=O)O)O3)O2)O1 (stereo partly drawn) [Monensin sodium salt] | −8.13 | −4.34 | –
O=[N+]([O-])O[C@@H]1CO[C@H]2[C@@H]1OC[C@@H]2O [Isosorbide mononitrate] | 0.647 | −2.01 | –
CCN(CC)CCOc1ccc(Nc2ncc3cc(-c4c(Cl)cccc4Cl)c(=O)n(C)c3n2)cc1 [Down13, PD-166285 hydrate] | – | – | % Activity [4]: −35.5%
CCCNC(C)C(=O)Nc1c(C)csc1C(=O)OC.Cl (stereo not drawn) [Articaine hydrochloride] | −0.466 | −2.02 | –
CCN(CC)CCNC(=O)COc1ccc(OC)cc1.Cl [Mefexamide hydrochloride, mefexamide hydrochloride] | – | – | Migration (standardized viability) Z Score [2, 6]: 1.12; NPAS2 Z Score [3, 6]: −2.06; NPAS Z × ViabilityZ [3, 7]: −2.31
C[C@@H]1C[C@@H]([C@H](O)CC2CC(=O)NC(=O)C2)C(=O)[C@@H](C)C1 [Cycloheximide] | −4.91 | −3.29 | –
OCC(O)CN1CCN(c2ccccc2)CC1 (racemic) [Dropropizine (R,S)] | −1.21 | −2.27 | –
c1ccc2c(c1)[I+]c1ccccc1-2 [Down08, Diphenyleneiodonium chloride] | – | – | % Activity [4]: −18.6%
CCc1c(C)[nH]c2c1C(=O)C(CN1CCOCC1)CC2.Cl (stereo not drawn) [Molindone hydrochloride] | – | – | Migration (standardized viability) Z Score [2, 6]: 1.22; NPAS2 Z Score [3, 6]: −2.1; NPAS Z × ViabilityZ [3, 7]: −2.56
Cl.NCc1ccc(S(N)(=O)=O)cc1 [Mafenide hydrochloride] | −0.188 | −2.8 | –
Cn1c(=O)c(-c2c(Cl)cccc2Cl)cc2cnc(Nc3ccc(N4CCOCC4)cc3)nc21 [Down14, PD-173952] | – | – | % Activity [4]: −33.0%
CN1C(=O)OC(C)(C)C1=O [Trimethadione] | −0.105 | −2.74 | –
COc1cc([C@@H]2c3cc4c(cc3[C@H](O)[C@H]3COC(=O)[C@H]23)OCO4)cc(OC)c1OC [Down10, Podophyllotoxin] | – | – | % Activity [4]: −15.6%
CC(=O)OC1CN2CCC1CC2.Cl (stereo not drawn) [Aceclidine Hydrochloride] | 0.198 | −2.2 | –
CCN(CC)C(=O)N1CCN(C)CC1.O=C(O)CC(O)(CC(=O)O)C(=O)O [Diethylcarbamazine citrate] | −2.08 | −2.36 | –
S=c1nc[nH]c2nc[nH]c12 [MS-1500387, Mercaptopurine] | 0.577 | −2.08 | –
